Experiment [1] deals with DNA gyrase subunit B (Escherichia coli, UniProt P0AES6).
Description: Inhibition of Escherichia coli DNA gyrase B ATP binding site assessed as reduction in supercoiling of relaxed pNO1 DNA after 30 mins in presence of biotinylated oligonucleotide by sybrGOLD staining based fluorescence assay
Experiment [2] addresses DNA gyrase subunit B (Staphylococcus aureus, UniProt P0A0K8).
Description: Inhibition of Staphylococcus aureus DNA gyrase B ATP binding site assessed as reduction in supercoiling of relaxed pNO1 DNA after 30 mins in presence of biotinylated oligonucleotide by sybrGOLD staining based fluorescence assay
The next experiment relates to Enterococcus faecalis. Briefly: microbe, parasite or virus in culture. The conditions noted are these: ATCC 29212, 24 h, read-out: GI.
The subject of experiment [3] is Escherichia coli. Briefly: Antibacterial activity against Escherichia coli ECM1194 lacking tolC gene by broth microdilution method. Type of experiment: functional. Background: In broth dilution the organism is exposed to a series of concentrations in liquid medium.
The subject of experiment [4] is Escherichia coli. In words: Antibacterial activity against wild type Escherichia coli ECM1194 by broth microdilution method. Type of experiment: functional.
The subject of experiment [5] is Escherichia coli. Briefly: Growth inhibition of Escherichia coli ATCC 25922 at 50 uM after 24 hrs by broth microdilution method. Type of experiment: functional. The conditions noted are these: ATCC 25922, 24 h, read-out: GI.
A further experiment deals with Pseudomonas aeruginosa. Briefly: Growth inhibition of Pseudomonas aeruginosa ATCC 27853 at 50 uM after 24 hrs by broth microdilution method. Type of experiment: functional. The conditions noted are these: ATCC 27853, 24 h, read-out: GI.

SMILES strings stand for the structures. Bounds are passed on as bounds.

The IC50 is the concentration that gives 50% inhibition. The MIC is the least concentration at which growth counts as inhibited. A lower MIC goes with a more susceptible organism.

Sequence of DNA gyrase subunit B (Staphylococcus aureus, UniProt P0A0K8) (P0A0K8 whole entry): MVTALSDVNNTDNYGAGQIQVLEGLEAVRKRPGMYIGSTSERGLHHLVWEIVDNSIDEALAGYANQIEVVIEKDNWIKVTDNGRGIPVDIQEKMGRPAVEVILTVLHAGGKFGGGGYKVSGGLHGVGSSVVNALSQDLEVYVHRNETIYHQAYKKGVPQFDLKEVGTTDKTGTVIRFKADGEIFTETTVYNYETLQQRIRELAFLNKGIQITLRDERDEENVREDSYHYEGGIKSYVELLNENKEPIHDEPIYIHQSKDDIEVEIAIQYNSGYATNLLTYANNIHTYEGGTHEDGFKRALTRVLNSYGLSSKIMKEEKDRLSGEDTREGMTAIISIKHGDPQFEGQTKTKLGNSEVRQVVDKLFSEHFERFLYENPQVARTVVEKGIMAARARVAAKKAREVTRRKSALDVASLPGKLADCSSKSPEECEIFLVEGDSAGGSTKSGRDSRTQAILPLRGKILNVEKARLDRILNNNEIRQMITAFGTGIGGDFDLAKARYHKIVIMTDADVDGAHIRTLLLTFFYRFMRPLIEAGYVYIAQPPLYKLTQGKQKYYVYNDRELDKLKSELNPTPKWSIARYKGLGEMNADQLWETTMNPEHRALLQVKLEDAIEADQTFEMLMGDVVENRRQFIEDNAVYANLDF
Description for Enterococcus faecalis: Growth inhibition of Enterococcus faecalis ATCC 29212 at 50 uM after 24 hrs by broth microdilution method

With `COC(=O)CC(=O)Nc1nc2ccc(NC(=O)c3cc(Br)c(Br)[nH]3)cc2s1`, the IC50 is 0.24 µM at DNA gyrase subunit B [1] and more than 100 µM at DNA gyrase subunit B [2].

Consider `O=C(O)C(=O)Nc1nc2ccc(NC(=O)c3cc(Br)c(Br)[nH]3)cc2s1`, for which the IC50 against DNA gyrase subunit B [1] was 0.038 µM; against DNA gyrase subunit B [2], more than 100 µM.

`O=C(O)CCC(=O)Nc1ccc2nc(NC(=O)c3cc(Br)c(Br)[nH]3)sc2c1`: the IC50 at DNA gyrase subunit B [1] was 0.033 µM; on DNA gyrase subunit B [2], more than 100 µM.

Consider `COC(=O)CCC(=O)Nc1nc2ccc(NC(=O)c3cc(Br)c(Br)[nH]3)cc2s1`, for which the figures for the IC50 on DNA gyrase subunit B [1] and on DNA gyrase subunit B [2] were 0.87 µM and more than 100 µM, respectively.

For the compound `O=C(O)CCC(=O)Nc1ccc2nc(NC(=O)c3cc(Cl)c(Cl)[nH]3)sc2c1`, the IC50 on DNA gyrase subunit B [1] was determined as 0.43 µM; against DNA gyrase subunit B [2], 94 µM.

For `O=C(O)CC(=O)Nc1ccc2nc(NC(=O)c3cc(Cl)c(Cl)[nH]3)sc2c1`, the IC50 against DNA gyrase subunit B [1] stood at 0.12 µM; against DNA gyrase subunit B [2] it was 8.5 µM.

For the compound `COC(=O)CC(=O)Nc1ccc2nc(NC(=O)c3cc(Cl)c(Cl)[nH]3)sc2c1`, the IC50 was 0.22 µM against DNA gyrase subunit B [1] and more than 100 µM against DNA gyrase subunit B [2].

Turning to `CCOC(=O)C(=O)Nc1nc2ccc(NC(=O)c3cc(Cl)c(Cl)[nH]3)cc2s1`, the IC50 on DNA gyrase subunit B [1] was 1.8 µM; at DNA gyrase subunit B [2], more than 100 µM. Moreover, the inhibition of growth at 50 µM in the experiment on Enterococcus faecalis worked out at 47%.

For `COC(=O)CCC(=O)Nc1ccc2nc(NC(=O)c3cc(Br)c(Br)[nH]3)sc2c1`, the 50% inhibitory concentration (IC50) against DNA gyrase subunit B [1] is 7 µM; on DNA gyrase subunit B [2], more than 100 µM.

As for `O=C(O)C(=O)Nc1ccc2nc(NC(=O)c3cc(Cl)c(Cl)[nH]3)sc2c1`, the IC50 against DNA gyrase subunit B [2] came out at 0.51 µM.

Consider `CCOC(=O)C(=O)Nc1ccc2nc(NC(=O)c3cc(Br)c(Br)[nH]3)sc2c1`, for which the results for the IC50 on DNA gyrase subunit B [1] and against DNA gyrase subunit B [2] were 29 µM and more than 100 µM, respectively.

For the compound `CCOC(=O)C(=O)Nc1nc2ccc(NC(=O)c3cc(Br)c(Br)[nH]3)cc2s1`, the IC50 at DNA gyrase subunit B [1] is 0.081 µM; at DNA gyrase subunit B [2], more than 100 µM.

With `O=C(O)CC(=O)Nc1ccc2nc(NC(=O)c3cc(Br)c(Br)[nH]3)sc2c1`, the IC50 against DNA gyrase subunit B [1] is 0.14 µM; against DNA gyrase subunit B [2], 5.6 µM. Moreover, the MIC was less than 16 µg/mL in the experiment on Escherichia coli [3] and more than 256 µg/mL against Escherichia coli [4]. Besides, the inhibition of growth at 50 µM was 12% with Escherichia coli [5], 59% with Enterococcus faecalis and 11% in the experiment with Pseudomonas aeruginosa.

For `Nc1ccc2nc(NC(=O)c3cc(Br)c(Br)[nH]3)sc2c1`, the results for the IC50 at DNA gyrase subunit B [1] and against DNA gyrase subunit B [2] were 2 µM and more than 100 µM, respectively.

`COC(=O)CCC(=O)Nc1ccc2nc(NC(=O)c3cc(Cl)c(Cl)[nH]3)sc2c1`: the IC50 on DNA gyrase subunit B [1] is 35 µM; against DNA gyrase subunit B [2], more than 100 µM.

For the compound `COC(=O)CC(=O)Nc1nc2ccc(NC(=O)c3cc(Cl)c(Cl)[nH]3)cc2s1`, the IC50 was 7.9 µM on DNA gyrase subunit B [1] and more than 100 µM against DNA gyrase subunit B [2].

As to `COC(=O)CC(=O)Nc1ccc2nc(NC(=O)c3cc(Br)c(Br)[nH]3)sc2c1`, the IC50 at DNA gyrase subunit B [1] was 2 µM; against DNA gyrase subunit B [2] it was more than 100 µM.

For the compound `CCOC(=O)C(=O)Nc1ccc2nc(NC(=O)c3cc(Cl)c(Cl)[nH]3)sc2c1`, the IC50 on DNA gyrase subunit B [1] and at DNA gyrase subunit B [2] was more than 100 µM each time.

In the case of `O=C(O)CCC(=O)Nc1nc2ccc(NC(=O)c3cc(Br)c(Br)[nH]3)cc2s1`, the IC50 at DNA gyrase subunit B [1] was 0.057 µM; against DNA gyrase subunit B [2] it was more than 100 µM.

Take `Nc1ccc2nc(NC(=O)c3cc(Cl)c(Cl)[nH]3)sc2c1`: the half-inhibitory concentration (IC50) against DNA gyrase subunit B [1] and against DNA gyrase subunit B [2] was more than 100 µM each time.

The values above are taken from ChEMBL document CHEMBL3861980, “Discovery of Benzothiazole Scaffold-Based DNA Gyrase B Inhibitors” (J Med Chem, 2016).
